In one assay the test system is lung carcinoma. Nature of the assay: antitumor activity on experimental tumor strains. The assay is classed as in vivo. The settings on record: intraperitoneal and intratumoral introduction, MTD.
Another assay has as its system Ehrlich's solid tumor. Nature of the assay: antitumor activity on experimental tumor strains. In kind it is in vivo. The settings on record: intraperitoneal and intratumoral introduction, MTD.
Assay [1] has as its system mamma adenocarcinoma Ca-755. Nature of the assay: antitumor activity on experimental tumor strains. The assay is classed as in vivo. The settings on record: intraperitoneal and intratumoral introduction, MTD.
The subject of a further assay is sarcoma 37. The assay is described as follows: antitumor activity on experimental tumor strains. The assay is classed as in vivo. The settings on record: intraperitoneal and intratumoral introduction, MTD.
In assay [2] the test system is lymphocytic leukemia P-388. Nature of the assay: antitumor activity on experimental tumor strains. The assay is classed as in vivo. The settings on record: intraperitoneal and intratumoral introduction, MTD.
A further assay has as its system lymphoid leukemia L-1210. Nature of the assay: antitumor activity on experimental tumor strains. The assay is classed as in vivo. The settings on record: intraperitoneal and intratumoral introduction, MTD.
A further assay has as its system sarcoma M-I. The assay is described as follows: antitumor activity on experimental tumor strains. In kind it is in vivo. The settings on record: intraperitoneal and intratumoral introduction, MTD.
Another assay has as its system Walker carcinosarcoma. Nature of the assay: antitumor activity on experimental tumor strains. In kind it is in vivo. The settings on record: intraperitoneal and intratumoral introduction, MTD.
Assay [3] has as its system alveolar mucous cancer of liver PC-1. Nature of the assay: antitumor activity on experimental tumor strains. The assay is classed as in vivo. The settings on record: alveolar mucous cancer of liver PC-1 of rats; intraperitoneal and intratumoral introduction, MTD.
The subject of assay [4] is interweave tumors, resistant to prospidine, rubomicine and sarcolyzine. The assay is described as follows: efficiency on drug-resistant interweave tumors. In kind it is in vivo.
A further assay concerns connective tissue. Nature of the assay: oxidation-reduction processes and metabolism in connective tissue.
Assay [5] relates to T-cellular part of immunity. The assay is described as follows: immunomodulating activity.
Assay [6] deals with (Homo sapiens, UniProt P49354+P49356). The assay is described as follows: inhibition of RAS-oncoprotein farnesylation. In kind it is biochemical.
(Homo sapiens, UniProt P49354+P49356), sequence (P49356 whole entry, one chain of several): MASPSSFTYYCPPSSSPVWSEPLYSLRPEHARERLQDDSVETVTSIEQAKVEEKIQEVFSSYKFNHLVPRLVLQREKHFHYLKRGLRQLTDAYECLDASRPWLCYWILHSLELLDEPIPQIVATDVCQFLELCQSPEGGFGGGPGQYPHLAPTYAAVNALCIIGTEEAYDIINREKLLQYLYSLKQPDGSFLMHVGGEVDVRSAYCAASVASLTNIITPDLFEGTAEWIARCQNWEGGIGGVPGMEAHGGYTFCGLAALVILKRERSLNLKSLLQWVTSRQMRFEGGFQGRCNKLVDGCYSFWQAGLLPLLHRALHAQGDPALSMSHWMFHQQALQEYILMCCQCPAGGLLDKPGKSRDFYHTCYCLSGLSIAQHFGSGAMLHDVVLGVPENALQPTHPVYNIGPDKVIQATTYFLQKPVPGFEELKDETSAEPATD
The test system of a further assay is RAS-genes. Nature of the assay: expression of RAS-genes. The assay is classed as cell-based.
The subject of the next assay is tumor cells. The assay is described as follows: ATP content and apoptosis of tumor cells. The assay is classed as cell-based.

“1(10)β-epoxy-13-dimethylamino-5,7α,6,11β(H)-guaia-3(4)-en-6,12-olide hydrochloride [Arglabin]”: the “sensitivity of tumor strain” value (with lung carcinoma; in the assay on Ehrlich's solid tumor; in assay [1]; in the assay on sarcoma 37; in assay [2]; with lymphoid leukemia L-1210) was “sensitive” each time. Besides, the “sensitivity of tumor strain” value (in the assay with sarcoma M-I; in the assay with Walker carcinosarcoma; in assay [3]) was “sensitive” each time. In addition, the “efficiency in relation to resistant interweave tumors” value in assay [4] was “shows efficiency”. Besides, the “oxidation-reduction processes and metabolism in a connective tissue” value in the assay on connective tissue is “has ability to optimize oxidation-reduction processes and a metabolism in a connective tissue”. Moreover, the “correction of immunodepressive effect of cytostatic” value in assay [5] is reported as “has a property to correct immunodepressive effect of cytostatic cells”. Besides, the immunomodulating activity result in assay [5] (depends on dose) is reported as “shows primary influence on the T-cellular part of immunity”. Further, the “inhibition of RAS-oncoproteins pharnesilis” value in [6] is “competitive inhibitor”. Besides, in the assay on RAS-genes, the “expression of RAS-genes” value is on record as “reduces”. The ATP content entry in the assay with tumor cells is “reduces”. Further, the tumor cells apoptosis entry in the assay with tumor cells is reported as “invokes tumor cells apoptosis”.

Source of the values: patent publication US20090171105A1 (priority 2006, published 2009).
